Assay results as given in patent publication US20240165132A1, “METHODS AND MATERIALS FOR TREATING CANCER” (Mayo Foundation for Medical Education and Research, priority 2021, published 2024).
Like-named read-outs stand apart in the source and are kept apart here.

Columns and labels:
Assay in all cases: Senolytic drug screen, CellTiter-Glo viability
Format in all cases: cell-based, human
[1] = system: GBM196; conditions: GBM196 (P2); for IC50: Homo sapiens, read-out: IC50 of A1331852
Method: (§1) Human patient-derived glioblastoma lines were utilized and were cultured according to established protocols. Tumor lines maintained as patient-derived xenografts (PDX) are from the National PDX resource. Such lines are designated as “GBM-6, 10, 12, 39, 76, 123, 164, or 196”. Implantation of patient-derived glioblastoma cells, serial passage of flank tumor xenografts, and short-term explant culturing were done as described elsewhere, with some lines maintained in serum-containing media, and some lines maintained in serum free media as noted in Table 2 (see, for example, Carlson et al., Current protocols in pharmacology. Chapter 14(14):Unit 14.16 (2011)). Some cell lines were maintained from time of harvest as in vitro cell lines rather than PDX lines, as described elsewhere (see, for example, Himes et al., Neuro-oncology. 22(7):967-978 (2020)). Such lines are designated as dBT114, dBT116, dBT120, dBT132 (dBT=differentiated brain tumor). Culture conditions were unchanged after induction of senescence.
(§2) After plating, cells were maintained in 10 cm culture dishes for 2-4 days until >50% confluent. Cells were then treated with TMZ for 7 days or radiation (cesium gamma radiator) with varying doses. Most experiments were performed after use of 15 Gy to induce senescence. Radiation and TMZ each caused death of a variable percentage of cells in the ensuing days. “Senescent” tumor cells used for experiments are designated by those that survive following TMZ or radiation treatments. Except for radiation doses of 4 Gy or below, no visible proliferation occurred within 1 month after treatment with TMZ or radiation. For initial screening of senolytic drugs, cells were maintained for at least 20 days after radiation or TMZ prior to re-plating cells into black walled optical 96-well plates (5000 cells/well) for doing drug treatment.
(§3) Human glioblastoma cells were exposed to 10, 15 or 20 Gy radiation as indicated above. All GBM lines tested (Table 2) yielded a subpopulation of surviving non-proliferative cells used for subsequent experiments, with the exception of GM43 which yielded insufficient surviving cells for senescence experiments. All senolytic drugs used in this study were dissolved in DMSO (Table 1). Control (0 nM) cells were treated with the same dose of DMSO as cells with the highest drug concentration. Unless specified otherwise, cells were maintained in drug-containing media for four days prior to evaluation of cell viability using ATP lite, CellTiter-Glo assay according to company protocol (Cat #G7570). For all experiments, luminescence values are normalized to the 0 nM control for that cell line and radiation dose. All dose response graphs are depicted standard error of the mean (SEM) of 3 technical replicates at each concentration. Representative data are shown for experiments performed in independent replicates.
(§4) Multiple linear regressions were used to assess the relationship of drug dose and treatment (e.g. control, radiation, TMZ) with cell inhibition within each cell line. For these models, cell inhibition was the outcome and drug dose, treatment, and the drug dose by treatment interaction were the independent predictors. If the drug dose by treatment interaction was significant (p<0.05), pairwise comparisons were made at each drug dose between treatment groups using a two-sample t-test. Statistical analysis was performed in Microsoft Excel. IC50 was calculated by nonlinear regression (Curve fit) of dose-response inhibition curve by using GraphPad prism 8.4.2.

[2] = system: GBM123; conditions: GBM123 (P3); for IC50: Homo sapiens, read-out: IC50 of A1331852
Method: as §1, §2, §3, §4

[3] = system: dBT120; conditions: dBT120 (P10); for IC50: Homo sapiens, read-out: IC50 of A1331852
Method: as §1, §2, §3, §4

[4] = system: dBT114; conditions: dBT114 (P11); for IC50: Homo sapiens, read-out: IC50 of A1331852
Method: as §1, §2, §3, §4

[5] = system: GBM164; conditions: GBM164 (P2); for IC50: Homo sapiens, read-out: IC50 of A1331852
Method: as §1, §2, §3, §4

[6] = system: GBM76; conditions: for IC50: Homo sapiens
Method: as §1, §2, §3, §4

[7] = system: GBM39; conditions: for IC50: Homo sapiens
Method: as §1, §2, §3, §4

[8] = system: GBM10; conditions: GBM10 (P2); for IC50: Homo sapiens, read-out: IC50 of A1331852
Method: as §1, §2, §3, §4

[9] = system: dBT132; conditions: dBT132 (P10); for IC50: Homo sapiens, read-out: IC50 of A1331852
Method: as §1, §2, §3, §4

[10] = system: dBT116; conditions: dBT116 (P8); for IC50: Homo sapiens, read-out: IC50 of A1331852
Method: as §1, §2, §3, §4

Cc1c(-c2ccc(N3CCc4cccc(C(=O)Nc5nc6ccccc6s5)c4C3)nc2C(=O)O)cnn1CC12CC3CC(CC(C3)C1)C2 [A1331852]
Relative sensitivity (RS) ([1]; control vs 15Gy): 10.72 | IC50 ([1]; 15Gy radiated): 2550 nM | IC50 ([1]; non-radiated control): 27300 nM | Relative sensitivity (RS) ([2]; control vs 15Gy): 2.457 | IC50 ([2]; 15Gy radiated): 9360 nM | IC50 ([2]; non-radiated control): 23000 nM | IC50 ([3]; 15Gy radiated): 458 nM | IC50 ([3]; non-radiated control): 5180 nM | Relative sensitivity (RS) ([3]; control vs 15Gy): 11.31 | IC50 ([4]; 15Gy radiated): 338 ± 72 nM | IC50 ([4]; non-radiated control): 6320 ± 1090 nM | Relative sensitivity (RS) ([4]; control vs 15Gy): 20.28 ± 7.55 | Relative sensitivity (RS) ([5]; control vs 15Gy): 3.824 | IC50 ([5]; 15Gy radiated): 77.7 nM | IC50 ([5]; non-radiated control): 297 nM | Relative sensitivity (RS) ([6]; GBM76 (P2), control vs 10Gy): 31.77 ± 23.61 | Relative sensitivity (RS) ([6]; GBM76 (P2), control vs 15Gy): 20.64 ± 5.633 | Relative sensitivity (RS) ([6]; GBM76 (P2), control vs 20Gy): 34.24 ± 7.988 | Relative sensitivity (RS) ([6]; GBM76 (P3), control vs TMZ): 28.21 | IC50 in radiated vs non-radiated cells ([6]; GBM76, 10, 15, 20 Gy vs non-radiated control, 4 days drug): lower IC50 radiated cells | IC50 ([6]; read-out: IC50 of A1331852, 10Gy, GBM76 (P2), 10Gy radiated): 1000 ± 367 nM | IC50 ([6]; read-out: IC50 of A1331852, 15Gy, GBM76 (P2), 15Gy radiated): 1230 ± 416 nM | IC50 ([6]; read-out: IC50 of A1331852, 20Gy, GBM76 (P2), 20Gy radiated): 679 ± 49.2 nM | IC50 ([6]; read-out: IC50 of A1331852, Control, GBM76 (P2), non-radiated control): 23500 ± 6760 nM | IC50 ([6]; read-out: IC50 of A1331852, Control, GBM76 (P3), control of TMZ series): 1680 nM | IC50 ([6]; read-out: IC50 of A1331852, TMZ, GBM76 (P3), TMZ treated): 59.7 nM | Relative sensitivity (RS) ([7]; GBM39 (P2-3), control vs 15Gy): 513.8149 ± 711.64 | Relative sensitivity (RS) ([7]; GBM39 (P2-3), control vs TMZ): 41.02 ± 2.182 | Relative sensitivity (RS) ([7]; GBM39 (P3), control vs 20Gy): 16.66 ± 11.88 | IC50 in radiated vs non-radiated cells ([7]; GBM39, 15 Gy vs 0 Gy, 21 days after radiation, 4 days drug, p<0.0001): lower IC50 in radiated cells | IC50 ([7]; GBM39, read-out: IC50 of A1331852, 15Gy, GBM39 (P2-3), 15Gy radiated): 80.5 ± 93 nM | IC50 ([7]; GBM39, read-out: IC50 of A1331852, 20Gy, GBM39 (P3), 20Gy radiated): 71 ± 10.3 nM | IC50 ([7]; GBM39, read-out: IC50 of A1331852, Control, GBM39 (P2-3), control of 15Gy series): 108000 ± 152000 nM | IC50 ([7]; GBM39, read-out: IC50 of A1331852, Control, GBM39 (P2-3), control of TMZ series): 1720 ± 2180 nM | IC50 ([7]; GBM39, read-out: IC50 of A1331852, Control, GBM39 (P3), control of 20Gy series): 1300 ± 1010 nM | Relative sensitivity (RS) ([8]; control vs 15Gy): 16.19 | IC50 ([8]; 15Gy radiated): 2470 nM | IC50 ([8]; non-radiated control): 40000 nM | IC50 ([9]; 96 h, non-radiated control, 4 days drug): 18200 nM | IC50 ([9]; 10Gy radiated): 4310 nM | IC50 ([9]; 20Gy radiated): 2930 nM | Relative sensitivity (RS) ([9]; control vs 10Gy): 4.214 | Relative sensitivity (RS) ([9]; control vs 20Gy): 6.192 | IC50 ([10]; 20Gy radiated): 63.5 nM | IC50 ([10]; non-radiated control): 290 nM | Relative sensitivity (RS) ([10]; control vs 20Gy): 4.566
